Measured values published in patent US8859580B2 (Boehringer Ingelheim International GmbH, priority 2007, dated 2014).

The compounds below were run against T1, 11β-HSD1 (Homo sapiens, UniProt P28845) (assay: In vitro inhibition of 11β-HSD1, HTRF detection of cortisol generated from cortisone by human liver microsomes). Details: 11β-HSD IC50 (nM), 1 hour at 37° C., pH 6.0, NADPH 200 μM, cortisone 80 nM, inhibition relative to carbenoxolone signal.
T1 construct: detecting cortisol generated from cortisterone by human liver microsomes; from tissue; host or cells: human liver microsomes
T1 sequence (P28845 whole entry): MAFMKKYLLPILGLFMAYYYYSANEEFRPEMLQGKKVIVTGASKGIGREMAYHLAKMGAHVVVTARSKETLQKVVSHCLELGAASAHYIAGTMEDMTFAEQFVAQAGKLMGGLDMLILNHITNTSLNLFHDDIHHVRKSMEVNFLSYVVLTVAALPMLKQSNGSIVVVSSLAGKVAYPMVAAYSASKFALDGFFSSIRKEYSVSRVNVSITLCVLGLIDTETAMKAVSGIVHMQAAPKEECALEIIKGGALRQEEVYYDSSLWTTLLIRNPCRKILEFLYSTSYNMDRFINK
Format: biochemical
Protocol: Cortisol generated in the reaction is then detected with a competitive immunoassay, involving two HTRF conjugates: cortisol linked to XL665 and anti-cortisol antibody labeled with Europium cryptate. The incubation period for detection reaction was typically 2 hours. […] The ratio of the two emission signals is then calculated (Em665*10000/Em615). […] Each assay also contained a calibration curve with cortisol to transform the fluorescent data into cortisol concentrations. Percent inhibition of each compound was determined relative to the carbenoxolone signal and IC50 curves were generated.

Row | SMILES | IC50 [nM]
1 | CC1(C)[C@H]2Cc3c(O)cccc3[C@]1(C)CCN2C(=O)c1ccc(CN2CC(O)C2)cc1 [Example 187, [4-(3-Hydroxy-azetidin-1-ylmethyl)-phenyl]-[(2R,6S)-10-hydroxy-6,11,11-trimethyl-1,2,5,6-tetrahydro-4H-2,6-methano-benzo[d]azocin-3-yl]-methanone] | 1960
2 | CCN(CC)Cc1ccc(C(=O)N2CC[C@@]3(C)c4cccc(O)c4C[C@@H]2C3(C)C)cc1 [Example 119, (4-Diethylaminomethyl-phenyl)-[(2R,6S)-10-hydroxy-6,11,11-trimethyl-1,2,5,6-tetrahydro-4H-2,6-methano-benzo[d]azocin-3-yl]-methanone] | 1550
3 | CC1(C)[C@H]2Cc3ccccc3[C@]1(C)CCN2C(=O)c1cc(Cl)c(N)c(Cl)c1 [Example 283, (4-Amino-3,5-dichloro-phenyl)-[(2R,6S)-6,11,11-trimethyl-1,2,5,6-tetrahydro-4H-2,6-methano-benzo[d]azocin-3-yl]-methanone] | 55
4 | CC1(C)[C@H]2Cc3ccccc3[C@]1(C)CCN2C(=O)c1ccc2nc[nH]c2c1 (racemic) [Example 82, (3H-Benzoimidazol-5-yl)-[(2R,6S)-6,11,11-trimethyl-1,2,5,6-tetrahydro-4H-2,6-methano-benzo[d]azocin-3-yl]-methanone] | 56
5 | CCCC12CCN(C(=O)c3ccc4nc[nH]c4c3)C(Cc3ccc(O)cc31)C2 (stereo not shown) [Example 88, (3H-Benzoimidazol-5-yl)-(8-hydroxy-6-propyl-1,2,5,6-tetrahydro-4H-2,6-methano-benzo[d]azocin-3-yl)-methanone] | 171
6 | Cc1ccc(-c2ccc3c(c2)[C@]2(C)CCN(C(=O)c4ccc5nc[nH]c5c4)[C@H](C3)[C@H]2C)nn1 [Example 263, (3H-Benzoimidazol-5-yl)-[(2R,6R,11S)-6,11-dimethyl-8-(6-methyl-pyridazin-3-yl)-1,2,5,6-tetrahydro-4H-2,6-methano-benzo[d]azocin-3-yl]-methanone] | 71
7 | Cc1nc2cc3c(cc2[nH]1)[C@]1(C)CCN(C(=O)c2ccc4nc[nH]c4c2)[C@H](C3)C1(C)C [Example 238, (3H-Benzoimidazol-5-yl)-[(6R,10S)-5,6,7,8,9,10-hexahydro-2,10,12,12-tetramethyl-6,10-methano-1H-imidazo[5,4-i][3]benzazocin-7-yl]-methanone] | 24
8 | CC1(C)[C@H]2Cc3cc4nc([C@@H]5CCCO5)[nH]c4cc3[C@]1(C)CCN2C(=O)c1ccc2nc[nH]c2c1 [Example 275, (3H-Benzoimidazol-5-yl)-[(6R,10S)-5,6,7,8,9,10-hexahydro-10,12,12-trimethyl-2-[(S)-tetrahydrofuran-2-yl]-6,10-methano-imidazo[5,4-i][3]benzazocin-7-yl]-methanone] | 25
9 | COC(=O)C12CCN(C(=O)c3ccc4ncsc4c3)C(Cc3ccc(O)cc31)C2 (stereo not shown) [Example 94, 3-(Benzothiazole-6-carbonyl)-8-hydroxy-2,3,4,5-tetrahydro-1H-2,6-methano-benzo[d]azocine-6-carboxylic acid methyl ester] | 6720
10 | Cc1cc2c(cc1O)[C@]1(C)CCN(C(=O)c3ccc4nc[nH]c4c3)[C@H](C2)C1(C)C (stereo in doubt) [Example 65, (3H-Benzoimidazol-5-yl)-[(2R,6S)-8-hydroxy-6,9,11,11-tetramethyl-1,2,5,6-tetrahydro-4H-2,6-methano-benzo[d]azocin-3-yl]-methanone] | 29
11 | CC(O)c1ccc2c(c1)C[C@H]1N(C(=O)c3ccc4nc[nH]c4c3)CC[C@]2(C)C1(C)C (stereo partly drawn) [Example 209, (3H-Benzoimidazol-5-yl)-[(2R,6S)-9-(1-hydroxy-ethyl)-6,11,11-trimethyl-1,2,5,6-tetrahydro-4H-2,6-methano-benzo[d]azocin-3-yl]-methanone] | 40
12 | C[C@@H]1[C@H]2Cc3ccc(-c4ccncn4)cc3[C@]1(C)CCN2C(=O)c1ccc2nc[nH]c2c1 [Example 264, (3H-Benzoimidazol-5-yl)-[(2R,6R,11S)-6,11-dimethyl-8-pyrimidin-4-yl-1,2,5,6-tetrahydro-4H-2,6-methano-benzo[d]azocin-3-yl]-methanone] | 78
13 | CC1(C)[C@H]2Cc3cc4oc([C@H]5CCCO5)nc4cc3[C@]1(C)CCN2C(=O)c1ccc2nc[nH]c2c1 [Example 337, (3H-Benzoimidazol-5-yl)-[(6R,10S)-5,6,7,8,9,10-hexahydro-10,12,12-trimethyl-2-[(R)-tetrahydrofuran-2-yl]-6,10-methano-oxazolo[4,5-i][3]benzazocin-7-yl]-methanone] | 52
14 | CC1(C)[C@H]2Cc3ccccc3[C@]1(C)CCN2C(=O)c1ccc(C(O)(C(F)(F)F)C(F)(F)F)cc1 [Example 339, [4-(2,2,2-Trifluoro-1-hydroxy-1-trifluoromethyl-ethyl)-phenyl]-[(2R,6S)-6,11,11-trimethyl-1,2,5,6-tetrahydro-4H-2,6-methano-benzo[d]azocin-3-yl]-methanone] | 1270
15 | CCN(CC)C(=O)c1ccc(C(=O)N2CC[C@@]3(C)c4cccc(O)c4C[C@@H]2C3(C)C)cc1 [Example 168, N,N-Diethyl-4-[(2R,6S)-10-hydroxy-6,11,11-trimethyl-1,2,5,6-tetrahydro-4H-2,6-methano-benzo[d]azocine-3-carbonyl]-benzamide] | 561
16 | CN(C)C(=O)c1ccc(C(=O)N2CC[C@@]3(C)c4cccc(O)c4C[C@@H]2C3(C)C)cc1 [Example 37, 4-[(2R,6S)-10-Hydroxy-6,11,11-trimethyl-1,2,5,6-tetrahydro-4H-2,6-methano-benzo[d]azocine-3-carbonyl]-N,N-dimethyl-benzamide] | 998
17 | Cc1nnc(-c2ccc3c(c2)[C@]2(C)CCN(C(=O)c4ccc5nc[nH]c5c4)[C@H](C3)[C@H]2C)n1C [Example 336, (3H-Benzoimidazol-5-yl)-[(2R,6R,11S)-8-(4,5-dimethyl-4H-[1,2,4]triazol-3-yl)-6,11-dimethyl-1,2,5,6-tetrahydro-4H-2,6-methano-benzo[d]azocin-3-yl]-methanone] | 198
18 | COc1ccc(C(=O)N2CC[C@@]3(C)c4cccc(O)c4C[C@@H]2C3(C)C)cc1 [Example 14, [(2R,6S)-10-Hydroxy-6,11,11-trimethyl-1,2,5,6-tetrahydro-4H-2,6-methano-benzo[d]azocin-3-yl]-(4-methoxy-phenyl)-methanone] | 734
19 | Cc1cccc(C(=O)N2CC[C@@]3(C)c4cccc(O)c4C[C@@H]2C3(C)C)c1 [Example 7, [(2R,6S)-10-Hydroxy-6,11,11-trimethyl-1,2,5,6-tetrahydro-4H-2,6-methano-benzo[d]azocin-3-yl]-m-tolyl-methanone] | 262
20 | CC1(C)[C@H]2Cc3c(O)cccc3[C@]1(C)CCN2C(=O)c1ccc(Cn2ccnc2)cc1 [Example 123, [(2R,6S)-10-Hydroxy-6,11,11-trimethyl-1,2,5,6-tetrahydro-4H-2,6-methano-benzo[d]azocin-3-yl]-(4-imidazol-1-ylmethyl-phenyl)-methanone] | 297
21 | Cc1[nH]c2ccccc2c1C(=O)N1CC[C@@]2(C)c3cccc(O)c3C[C@@H]1C2(C)C [Example 197, [(2R,6S)-10-Hydroxy-6,11,11-trimethyl-1,2,5,6-tetrahydro-4H-2,6-methano-benzo[d]azocin-3-yl]-(2-methyl-1H-indol-3-yl)-methanone] | 3830
22 | COc1cccc2c1CC1N(C(=O)c3ccc4nc[nH]c4c3)CCC2C1(C)C (stereo not shown) [Example 146, (3H-Benzoimidazol-5-yl)-(10-methoxy-11,11-dimethyl-1,2,5,6-tetrahydro-4H-2,6-methano-benzo[d]azocin-3-yl)-methanone] | 384
23 | CC1CN(Cc2ccc(C(=O)N3CC[C@@]4(C)c5cccc(O)c5C[C@@H]3C4(C)C)cc2)CC(C)O1 (stereo partly drawn) [Example 184, [4-(2,6-Dimethyl-morpholin-4-ylmethyl)-phenyl]-[(2R,6S)-10-hydroxy-6,11,11-trimethyl-1,2,5,6-tetrahydro-4H-2,6-methano-benzo[d]azocin-3-yl]-methanone] | 1150
24 | Cc1nc(-c2ccc3c(c2)CC2N(C(=O)c4ccc5[nH]cnc5c4)CCC3(C)C2(C)C)no1 (stereo not shown) [Example 176, (1H-Benzoimidazol-5-yl)-[6,11,11-trimethyl-9-(5-methyl-[1,2,4]oxadiazol-3-yl)-1,2,5,6-tetrahydro-4H-2,6-methano-benzo[d]azocin-3-yl]-methanone] | 603
25 | Cc1cc2c(cc1O)C[C@H]1N(C(=O)c3ccc4nc[nH]c4c3)CC[C@]2(C)C1(C)C (stereo in doubt) [Example 67, (3H-Benzoimidazol-5-yl)-[(2R,6S)-9-hydroxy-6,8,11,11-tetramethyl-1,2,5,6-tetrahydro-4H-2,6-methano-benzo[d]azocin-a 3-yl]-methanone] | 32
26 | CCC12CCN(C(=O)c3ccc4nc[nH]c4c3)C(Cc3ccc(O)cc31)C2(C)C (stereo not shown) [Example 89, (3H-Benzoimidazol-5-yl)-(6-ethyl-8-hydroxy-11,11-dimethyl-1,2,5,6-tetrahydro-4H-2,6-methano-benzo[d]azocin-3-yl)-methanone] | 62
27 | CC1(C)[C@H]2Cc3ccc(S(N)(=O)=O)cc3[C@]1(C)CCN2C(=O)c1ccc2nc[nH]c2c1 [Example 203, (2R,6S)-3-(3H-Benzoimidazole-5-carbonyl)-6,11,11-trimethyl-1,2,3,4,5,6-hexahydro-2,6-methano-benzo[d]azocine-8-sulfonic acid amide] | 125

Same assay, conditions: 1 hour at 37° C., pH 6.0, NADPH 200 μM, cortisone 80 nM, inhibition relative to carbenoxolone signal, read-out: 11β-HSD IC50

Row | SMILES | IC50 [nM]
28 | CC12CCCN(C(=O)c3ccc4nc[nH]c4c3)C(Cc3ccccc31)C2 (stereo not shown) [Example 324, (3H-Benzoimidazol-5-yl)-(1-methyl-10-aza-tricyclo[7.4.1.0*2,7*]tetradeca-2,4,6-trien-10-yl)-methanone] | 121
